Among the data in patent publication US8921360B2, “Heterobicycle-substituted azolyl benzene fungicides” (priority 2009, dated 2014) are pest or weed control values, retold here.

Each structure is given as a SMILES string.

Common to all, as to type: in vivo
Experiment [1] relates to Puccinia recondita f. sp. tritici. The experiment is described as follows: Test C: wheat leaf rust, spray the day after inoculation of wheat seedlings.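 Note: Curative spray on infected wheat seedlings with visual rating 5 days later.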 The following applies: Puccinia recondita, 120 h, wheat seedlings inoculated, sprayed the following day, rated after 5 days, read-out: Percentage Disease Control Test C. A digest of the protocol:
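Wheat seedlings inoculated with P. recondita spores, held 24 h at 20 °C in saturated atmosphere, then sprayed to run-off next day (curative). Test suspension in acetone/water with 250 ppm surfactant, 200 ppm (≈800 g/ha) or 40 ppm. Disease rated visually after 5 days at 20 °C as % control relative to untreated.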

In experiment [2] the test system is Erysiphe graminis f. sp. tritici. The experiment is described as follows: Test A: wheat powdery mildew, preventive spray on wheat seedlings. Conditions: Blumeria graminis, 192 h, wheat seedlings sprayed to run-off, inoculated next day, rated after 8 days, 100 = 100% disease control, 0 = no control, read-out: Percentage Disease Control Test A. A digest of the protocol:
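Wheat seedlings sprayed to run-off with compound suspended in acetone/water 50/50 plus 250 ppm Trem 014, at 200 ppm (equivalent to 800 g/ha) or 40 ppm where marked. Inoculated next day with Erysiphe graminis f. sp. tritici spore dust, held 8 days at 20° C. Disease visually rated as % control relative to untreated controls.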

Experiment [3] has as its system Puccinia recondita f sp. tritici. The experiment is described as follows: Test B: wheat leaf rust, preventive spray on wheat seedlings. Conditions: Puccinia recondita, 192 h, wheat seedlings sprayed to run-off, inoculated next day, rated after 24 h + 7 days, read-out: Percentage Disease Control Test B.
For a further experiment, the system named is Septoria tritici. The experiment is described as follows: Test E: wheat leaf blotch, preventive spray on wheat seedlings. The following applies: Zymoseptoria tritici, 456 h; 200 ppm; wheat seedlings sprayed to run-off, inoculated next day, rated after 48 h + 19 days; read-out: Percentage Disease Control Test E. A digest of the protocol: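 Wheat seedlings were sprayed to run-off with compound at 200 ppm (≈800 g/ha) or 40 ppm in acetone/water with surfactant. Spores were inoculated the next day, followed by 48 h saturated atmosphere at 24° C, then 19 days at 20° C. Disease control was visually rated 0–100 relative to controls.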

A further experiment relates to Alternaria solani. The experiment is described as follows: Test G: tomato early blight, preventive spray on tomato seedlings. Conditions: Alternaria solani, topical, 168 h, tomato seedlings sprayed to run-off, inoculated next day, rated after 48 h + 5 days, read-out: Percentage Disease Control Test G. In a few lines:
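Tomato seedlings sprayed to run-off with compound at 200 ppm (≈800 g/ha) or 40 ppm where marked, in acetone/water with 250 ppm Trem 014. Plants inoculated with A. solani spores the next day, held 48 h saturated at 27 °C, then 5 days at 24 °C. Disease visually rated as % control relative to untreated plants.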

As to `COC(=O)NCc1cc(-c2ccn(-c3ccc4c(c3)C=C(C(=O)OC)CO4)n2)ccc1Cl` [Compound 23, methyl 6-[3-[4-chloro-3-[[(methoxycarbonyl)amino]methyl]phenyl]-1H-pyrazol-1-yl]-2H-1-benzopyran-3-carboxylate], the pest or weed control at 200 ppm in experiment [1] came to 0%; in experiment [2] it was 0%; in experiment [3], 94%; with Septoria tritici, 0%; in the experiment on Alternaria solani it was 0%.
Turning to `COC(=O)NCc1cc(-c2ccn(-c3ccc4c(c3)C=C(C(=O)O)CO4)n2)ccc1Cl` [Compound 24, 6-[3-[4-chloro-3-[[(methoxycarbonyl)amino]methyl]phenyl]-1H-pyrazol-1-yl]-2H-1-benzopyran-3-carboxylic acid], the pest or weed control at 200 ppm in experiment [1] was 0%; in experiment [2], 0%; in experiment [3] it was 96%; with Septoria tritici it was 0%; in the experiment on Alternaria solani, 0%.
On to `COC(=O)NCc1cc(-n2ccc(-c3ccc4c(c3)CCCO4)n2)ccc1C` [Compound 25, methyl N-[[5-[3-(3,4-dihydro-2H-1-benzopyran-6-yl)-1H-pyrazol-1-yl]-2-methylphenyl]methyl]carbamate], for which the pest or weed control at 200 ppm in experiment [1] was determined as 100%; in experiment [2] it was 100%; in experiment [3], 100%; in the experiment with Septoria tritici it was 100%; in the experiment on Alternaria solani it was 0%.
For `COC(=O)NCc1cc(-c2ccn(-c3ccc4c(c3)CC3(CO4)OCCO3)n2)ccc1Cl` [Compound 28, methyl N-[[2-chloro-5-(1-spiro[2H-1-benzopyran-3(4H), 2′-[1,3]dioxolan]-6-yl-1H-pyrazol-3-yl)phenyl]methyl]carbamate], the pest or weed control at 200 ppm in experiment [1] came out at 100%; in experiment [2], 99%; in experiment [3], 100%; with Septoria tritici, 93%; in the experiment on Alternaria solani, 90%.
Turning to `COC(=O)NCc1cc(-c2ccn(-c3ccc4c(c3)CC(=O)CO4)n2)ccc1Cl` [Compound 29, methyl N-[[2-chloro-5-[1-(3,4-dihydro-3-oxo-2H-1-benzopyran-6-yl)-1H-pyrazol-3-yl]phenyl]methyl]carbamate], the pest or weed control at 200 ppm was found to be 0% in experiment [1]; 72% in experiment [2]; 99% in experiment [3]; 10% with Septoria tritici; 17% in the experiment with Alternaria solani.
The corresponding values for `COC(=O)NCc1cc(-c2ccn(-c3ccc4c(c3)CC(O)CO4)n2)ccc1Cl` (stereo not drawn) [Compound 30, methyl N-[[2-chloro-5-[1-(3,4-dihydro-3-hydroxy-2H-1-benzopyran-6-yl)-1H-pyrazol-3-yl]phenyl]methyl]carbamate] are 9%, 98%, 100%, 78% and 94%.
